Test results reported in PMC8481833, “Kinetic Characterization and Inhibitor Screening of Pyruvate Kinase I From Babesia microti” (Frontiers in Microbiology, 2021).
Like-named read-outs stand apart in the source and are kept apart here.

How the values were obtained:
rBmPYKI = rBmPYKI (Babesia microti, UniProt A0A1N6LXR4); assay: biochemical; format: biochemical
rBmLDH = rBmLDH (Babesia microti, UniProt I7J7V6); assay: biochemical; format: biochemical
B. microti = assay: Rescue assay of tannic acid (pyruvate or ATP added); format: cell-based, Babesia microti; details: tannic acid 1 μM, DA about 10 μM
Method: MilliporeSigma) was used as the positive control, and DMSO was used as the negative control because tannic acid was diluted in DMSO. The group only containing medium without any treatment was used as the blank control. Each test was performed in triplicate.

PYK from T. gondii = details: cited from earlier work
PYK from P. falciparum = details: cited from earlier work
trypanosomes = system: trypanosomes; set-up: method as in Worku et al., 2015; details: net ATP depletion by inhibiting PYK; ref Worku et al., 2015; cited from earlier work

Sequence of rBmLDH (I7J7V6 1-332): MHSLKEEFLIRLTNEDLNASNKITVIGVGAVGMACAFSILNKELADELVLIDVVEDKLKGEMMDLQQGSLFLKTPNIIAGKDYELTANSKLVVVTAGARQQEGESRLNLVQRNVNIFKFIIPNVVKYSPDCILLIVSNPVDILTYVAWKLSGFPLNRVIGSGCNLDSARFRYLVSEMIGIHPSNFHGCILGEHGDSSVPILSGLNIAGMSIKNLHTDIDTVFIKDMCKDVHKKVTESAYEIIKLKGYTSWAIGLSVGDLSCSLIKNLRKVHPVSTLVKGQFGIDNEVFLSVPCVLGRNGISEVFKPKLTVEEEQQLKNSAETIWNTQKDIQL
Sequence of rBmPYKI (A0A1N6LXR4 1-489): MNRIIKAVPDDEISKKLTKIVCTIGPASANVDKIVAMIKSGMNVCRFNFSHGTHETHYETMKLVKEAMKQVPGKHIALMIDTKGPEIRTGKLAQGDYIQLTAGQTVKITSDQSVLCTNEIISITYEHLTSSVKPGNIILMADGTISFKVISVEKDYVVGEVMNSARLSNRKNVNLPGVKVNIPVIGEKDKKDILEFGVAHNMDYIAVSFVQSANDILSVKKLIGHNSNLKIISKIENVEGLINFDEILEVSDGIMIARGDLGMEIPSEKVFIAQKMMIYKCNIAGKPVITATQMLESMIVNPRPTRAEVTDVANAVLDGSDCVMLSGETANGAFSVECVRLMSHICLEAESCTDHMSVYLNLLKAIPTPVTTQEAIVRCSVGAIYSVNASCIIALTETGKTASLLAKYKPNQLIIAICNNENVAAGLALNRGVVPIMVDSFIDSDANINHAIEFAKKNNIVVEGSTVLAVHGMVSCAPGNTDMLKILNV

O=c1cc(-c2ccccc2)oc2ccc(O)cc12 [6-Hydroxyflavone]
IC50 (rBmPYKI; read-out: IC50 rBmPYKI): 390 µM
effect on rBmLDH / LDH reaction activity (rBmLDH): obvious inhibitory effect
IC50 (rBmLDH; read-out: IC50 rBmLDH): 828 µM

CC(C)=CCC1=C(O)C(=O)c2ccccc2C1=O [Lapachol]
effect on the activity of rBmPYKI (rBmPYKI): no effect
IC50 (rBmLDH): 721 µM
effect on rBmLDH / LDH reaction activity (rBmLDH): no effect

CC(=O)NCC(=O)O.CC(=O)NCC(=O)O.N=C(N)c1ccc(N=NNc2ccc(C(=N)N)cc2)cc1 [DA, diminazene aceturate]
effect of addition of ATP on the inhibitory effect (B. microti; 2 mM ATP): did not affect
effect of addition of pyruvate on the inhibitory effect (B. microti; 2 mM pyruvic acid): no effect
inhibition of B. microti as compared with DMSO (B. microti): significantly inhibit

C=C(OP(=O)(O)O)C(=O)O [PEP, phosphoenolpyruvate]
Km (PYK from T. gondii): 750 µM
Km (PYK from P. falciparum): 190 µM

OC[C@H]1O[C@@H](Oc2cc(O)cc(/C=C/c3ccc(O)cc3)c2)[C@H](O)[C@@H](O)[C@@H]1O [Polydatin]
IC50 (rBmPYKI): 92.9 µM
IC50 (rBmLDH): 142 µM
effect on rBmLDH / LDH reaction activity (rBmLDH): obvious inhibitory effect

CCOC(=O)C(C)=O [Ethyl pyruvate]
time of exposure to kill trypanosomes (trypanosomes): ≤ 3 h

O=c1cc(-c2ccccc2)oc2ccccc12 [Flavone]
effect on the activity of rBmPYKI (rBmPYKI): no effect
IC50 (rBmPYKI; read-out: IC50 rBmPYKI): > 1950 µM
effect on rBmLDH / LDH reaction activity (rBmLDH): no effect
IC50 (rBmLDH; read-out: IC50 rBmLDH): > 1950 µM

COc1c(O)cc(O)c2c(=O)cc(-c3ccccc3)oc12 [Wogonin]
IC50 (rBmPYKI): 185 µM
IC50 (rBmLDH): 143 µM
effect on rBmLDH / LDH reaction activity (rBmLDH): obvious inhibitory effect
